# Experimental data published in ChEMBL document CHEMBL4312024, “Optimization of piperazine-derived ureas privileged structures for effective antiadenovirus agents” (Eur J Med Chem, 2020).
# System: Human adenovirus 5
# Experiment: Antiviral activity against Human adenovirus 5 infected in HEK293beta5 cells coexpressing GFP assessed as inhibition of plaque formation at 10 uM incubated for 7 days relative to control
# Format: functional
# Conditions: Human mastadenovirus C, 168 h
row,SMILES,inhibition at 10 µM
1,CC(C)(C)OC(=O)N1CCN(C(=O)Nc2ccccc2[N+](=O)[O-])CC1,15%
2,CC1CN(C(=O)OC(C)(C)C)CCN1C(=S)Nc1ccc(C#N)cc1 (stereo unspecified),88.9%
3,O=C(Cc1ccccc1)N1CCN(C(=O)Nc2ccc([N+](=O)[O-])cc2)C(c2ccccc2)C1 (stereo unspecified),82.6%
4,Cc1ccc(NC(=S)N2CCN(C(=O)CC3CCCCC3)CC2c2ccccc2)cc1 (stereo unspecified),15%
5,CC1CN(C(=O)c2cc3ccccc3o2)CCN1C(=S)Nc1ccc(C(F)(F)F)cc1 (stereo unspecified),100%
6,CC1CN(C(=O)Cc2ccccc2)CCN1C(=S)Nc1ccc(F)cc1 (stereo unspecified),100%
7,CC1CN(C(=O)c2cc3ccccc3o2)CC(C)N1C(=O)Nc1ccc(C#N)cc1 (stereo unspecified),10%
8,Cc1ccc(NC(=S)N2CCN(C(=O)OC(C)(C)C)CC2C)cc1 (stereo unspecified),49.1%
9,CC1CN(C(=O)CC(C)(C)C)CCN1C(=S)Nc1ccc(Cl)cc1 (stereo unspecified),61.6%
10,CC1CN(C(=O)c2cc3ccccc3o2)CC(C)N1C(=O)Nc1ccc([N+](=O)[O-])cc1 (stereo unspecified),12.2%
11,CC1CN(C(=O)OC(C)(C)C)CCN1C(=S)Nc1ccc(Cl)cc1 (stereo unspecified),73.4%
12,CC1CN(C(=O)c2cc3ccccc3o2)CC(C)N1C(=O)Nc1cc(C(F)(F)F)ccc1Cl (stereo unspecified),0%
13,O=C(c1cc2ccccc2o1)N1CCN(C(=O)c2cc3ccccc3o2)C(c2ccccc2)C1 (stereo unspecified),19.4%
14,O=C(Nc1cc(C(F)(F)F)ccc1Cl)N1CCN(C(=O)Nc2cc(C(F)(F)F)ccc2Cl)CC1,33.9%
15,O=C(Nc1ccccc1[N+](=O)[O-])N1CCN(C(=O)c2cc3ccccc3o2)CC1,41.5%
16,O=C(Cc1ccccc1)N1CCN(C(=S)Nc2ccc([N+](=O)[O-])cc2)C(c2ccccc2)C1 (stereo unspecified),5.5%
17,CC1CN(C(=O)OC(C)(C)C)CCN1C(=S)Nc1ccc([N+](=O)[O-])cc1 (stereo unspecified),100%
18,COc1ccc(NC(=S)N2CCN(C(=O)OC(C)(C)C)CC2C)cc1 (stereo unspecified),36.5%
19,N#Cc1ccc(NC(=S)N2CCN(C(=O)Cc3ccccc3)CC2c2ccccc2)cc1 (stereo unspecified),64%

row,SMILES,inhibition at 10 µM
1,O=C(Nc1ccc([N+](=O)[O-])cc1)N1CCN(C(=O)c2cc3ccccc3o2)CC1,0%
2,CC1CN(C(=O)c2cc3ccccc3o2)CC(C)N1C(=O)Nc1ccc(Cl)c(C(F)(F)F)c1 (stereo unspecified),0%
3,O=C(CC1CCCCC1)N1CCN(C(=S)Nc2ccc(F)cc2)C(c2ccccc2)C1 (stereo unspecified),5%
4,CC1CN(C(=O)CC(C)(C)C)CCN1C(=S)Nc1ccc(F)cc1 (stereo unspecified),7.5%
5,COc1ccc(NC(=S)N2CCN(C(=O)CC3CCCCC3)CC2C)cc1 (stereo unspecified),25.5%
6,CC1CN(C(=O)OC(C)(C)C)CCN1C(=S)Nc1cc(C(F)(F)F)cc(C(F)(F)F)c1 (stereo unspecified),11.1%
7,COc1ccc(NC(=S)N2CCN(C(=O)CC(C)(C)C)CC2C)cc1 (stereo unspecified),58.1%
8,Cc1ccc(NC(=S)N2CCN(C(=O)CC(C)(C)C)CC2C)cc1 (stereo unspecified),76.8%
9,CC1CN(C(=O)CC(C)(C)C)CCN1C(=S)Nc1cc(C(F)(F)F)cc(C(F)(F)F)c1 (stereo unspecified),4.81%
10,Cc1ccc(NC(=O)N2C(C)CN(C(=O)c3cc4ccccc4o3)CC2C)cc1 (stereo unspecified),0%
11,CC(C)(C)OC(=O)N1CCN(C(=S)Nc2ccc(F)cc2)C(c2ccccc2)C1 (stereo unspecified),27.5%
12,CC1CN(C(=O)Cc2ccccc2)CCN1C(=S)Nc1ccc(C(F)(F)F)cc1 (stereo unspecified),73.4%
13,CC1CN(C(=O)CC(C)(C)C)CCN1C(=S)Nc1ccc([N+](=O)[O-])cc1 (stereo unspecified),76.2%
14,CC1CN(C(=O)OC(C)(C)C)CCN1C(=S)Nc1ccc(C(F)(F)F)cc1 (stereo unspecified),73.4%
15,CC1CN(C(=O)CC(C)(C)C)CCN1C(=S)Nc1ccc(C(F)(F)F)cc1 (stereo unspecified),36.3%
16,CC1CN(C(=O)CC(C)(C)C)CCN1C(=S)Nc1ccc(C#N)cc1 (stereo unspecified),51%
17,CC1CN(C(=O)c2cc3ccccc3o2)CC(C)N1C(=O)Nc1ccccc1[N+](=O)[O-] (stereo unspecified),72.2%
18,O=C(c1cc2ccccc2o1)N1CCN(C(=O)c2cc3ccccc3o2)CC1,51.5%

# System: not listed separately
# Experiment: Cytotoxicity against human A549 cells assessed as reduction in cell viability incubated for 48 hrs by alamarBlue assay
# Format: cell-based
# Conditions: not given
row,SMILES,CC50 at 48 h
1,CC1CN(C(=O)OC(C)(C)C)CCN1C(=S)Nc1ccc(C#N)cc1 (stereo unspecified),175 µM
2,O=C(Cc1ccccc1)N1CCN(C(=O)Nc2ccc([N+](=O)[O-])cc2)C(c2ccccc2)C1 (stereo unspecified),174 µM
3,CC1CN(C(=O)c2cc3ccccc3o2)CCN1C(=S)Nc1ccc(C(F)(F)F)cc1 (stereo unspecified),46.3 µM
4,CC1CN(C(=O)Cc2ccccc2)CCN1C(=S)Nc1ccc(F)cc1 (stereo unspecified),26.3 µM
